# Measurements published in the supplement of paper PMC10307832.
# Assays:
# Experiment in all cases: relative viability (nuclei count vs DMSO), 5 days (fraction); higher = more cells survive
# [1] = compound: Cc1ccc2nc(NCCN)c3ncc(C)n3c2c1 + COc1cc2c(Oc3ccc(NC(=O)C4(C(=O)Nc5ccc(F)cc5)CC4)cc3F)ccnc2cc1OCCCN1CCOCC1 [Foretinib] (partner 0.25 µM)
# Method in brief: (§1)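 Relative viability equals treated-well nuclei counts divided by vehicle-well nuclei counts. Counts came from 4× images of lung cancer cell lines grown in 1536-well plates for 5 days after pin-tool dosing on the day after seeding. Dosing used one drug alone or a fixed anchor-drug dose plus five library-drug doses (not always all listed) in √10 steps, and values are medians of duplicate plates.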
# Salubrinal + OSI-027 = compound: O=C(/C=C/c1ccccc1)NC(NC(=S)Nc1cccc2cccnc12)C(Cl)(Cl)Cl [Salubrinal] + COc1cccc2cc(-c3nc([C@H]4CC[C@H](C(=O)O)CC4)n4ncnc(N)c34)[nH]c12 [OSI-027] (partner 0.5 µM)
# Method in brief: as §1
# Salubrinal + Lapatinib = compound: O=C(/C=C/c1ccccc1)NC(NC(=S)Nc1cccc2cccnc12)C(Cl)(Cl)Cl [Salubrinal] + CS(=O)(=O)CCNCc1ccc(-c2ccc3ncnc(Nc4ccc(OCc5cccc(F)c5)c(Cl)c4)c3c2)o1 [Lapatinib] (partner 2 µM)
# Method in brief: as §1
# Salubrinal + Pemetrexed = compound: O=C(/C=C/c1ccccc1)NC(NC(=S)Nc1cccc2cccnc12)C(Cl)(Cl)Cl [Salubrinal] + Nc1nc2[nH]cc(CCc3ccc(C(=O)N[C@@H](CCC(=O)O)C(=O)O)cc3)c2c(=O)[nH]1 [Pemetrexed] (partner 0.2 µM)
# Method in brief: as §1
Cell Line,relative viability ([1]; first compound 0.04 µM),relative viability ([1]; first compound 0.1265 µM),relative viability ([1]; first compound 0.4 µM),relative viability ([1]; first compound 1.265 µM),relative viability ([1]; first compound 4 µM),relative viability (Salubrinal + OSI-027; first compound 0.08 µM),relative viability (Salubrinal + OSI-027; first compound 0.253 µM),relative viability (Salubrinal + OSI-027; first compound 0.8 µM),relative viability (Salubrinal + OSI-027; first compound 2.53 µM),relative viability (Salubrinal + OSI-027; first compound 8 µM),relative viability (Salubrinal + Lapatinib; first compound 0.08 µM),relative viability (Salubrinal + Lapatinib; first compound 0.253 µM),relative viability (Salubrinal + Lapatinib; first compound 0.8 µM),relative viability (Salubrinal + Lapatinib; first compound 2.53 µM),relative viability (Salubrinal + Lapatinib; first compound 8 µM),relative viability (Salubrinal + Pemetrexed; first compound 0.08 µM),relative viability (Salubrinal + Pemetrexed; first compound 0.253 µM),relative viability (Salubrinal + Pemetrexed; first compound 0.8 µM),relative viability (Salubrinal + Pemetrexed; first compound 2.53 µM),relative viability (Salubrinal + Pemetrexed; first compound 8 µM)
LXF-289,0.95,1,0.955,0.992,0.958,0.784,0.647,0.953,0.847,0.69,0.984,0.778,0.913,0.931,0.804,1.06,0.891,0.988,0.851,0.851
NCI-H23,1.09,1.04,0.963,0.88,1.03,0.59,0.573,0.647,0.539,0.606,1.08,1.1,1.34,0.955,1.36,0.674,0.633,0.919,0.653,0.421
NCI-H322M,0.995,0.874,0.969,1.04,1.15,0.471,0.536,0.565,0.57,0.471,0.606,0.589,0.669,0.657,0.517,0.699,0.578,0.684,0.574,0.544
NCI-H358,0.752,0.718,0.635,0.721,0.654,0.83,0.74,0.848,0.582,0.672,0.531,0.514,0.365,0.494,0.47,0.181,0.176,0.157,0.153,0.168
NCI-H460,0.982,0.901,0.955,0.928,0.965,1.21,0.406,1.03,0.514,0.317,1.6,0.445,1.76,0.948,0.75,0.0573,0.0837,0.0626,0.0636,0.0643
NCI-H520,0.878,0.949,0.647,0.892,0.661,0.334,0.22,0.265,0.307,0.337,0.921,0.767,1.25,0.847,0.769,0.762,0.523,0.777,0.716,0.734
NCI-H596,0.811,0.81,0.912,0.889,0.7,0.657,0.721,0.793,0.716,0.646,1.05,1.02,1.21,1.08,0.887,0.493,0.518,0.56,0.509,0.466
NCI-H647,1.06,1.18,1.23,1.15,0.912,0.76,0.671,0.6,0.638,0.604,1.31,0.687,1.31,1.2,0.829,0.199,0.174,0.184,0.196,0.147
NCI-H650,1.09,0.937,1.12,0.948,1,0.584,0.554,0.576,0.629,0.452,0.696,0.84,1.42,1.05,0.822,1.03,1.14,1.05,1.05,0.895
NCI-H661,1.02,0.983,1.03,1.1,0.967,0.781,0.58,0.77,0.705,0.603,0.609,0.497,0.248,0.467,0.412,0.942,0.808,0.936,0.89,0.91
NCI-H838,1.16,1.08,1.04,1.02,0.982,0.327,0.402,0.372,0.4,0.407,1.1,0.914,1.23,1.03,0.674,0.253,0.231,0.257,0.267,0.23
NCI-H1355,1.03,0.943,0.901,0.977,0.978,0.409,0.341,0.505,0.4,0.398,1.09,1.03,0.996,1.01,1.03,1.11,1.02,1.1,1.03,1.09
NCI-H1395,0.998,0.971,0.947,0.722,0.989,0.705,0.675,0.682,0.605,0.624,0.953,0.973,1.2,0.819,0.858,0.96,1.09,1.03,0.984,0.718
NCI-H1437,1.32,1.23,1.33,1.28,1.2,0.9,0.811,0.924,0.912,0.851,0.925,0.763,0.94,0.878,0.653,0.413,0.273,0.292,0.322,0.297
NCI-H1563,0.954,0.882,0.872,1.06,0.991,0.784,0.751,0.74,0.741,0.695,0.992,1.05,0.975,0.886,0.882,0.671,0.761,0.907,0.784,0.798
NCI-H1650,1.22,1.15,1.22,1.13,0.943,0.929,0.525,0.718,0.583,0.607,0.805,0.817,0.9,0.731,0.953,0.354,0.3,0.398,0.383,0.376

Cell Line,relative viability ([1]; first compound 0.04 µM),relative viability ([1]; first compound 0.1265 µM),relative viability ([1]; first compound 0.4 µM),relative viability ([1]; first compound 1.265 µM),relative viability ([1]; first compound 4 µM),relative viability (Salubrinal + OSI-027; first compound 0.08 µM),relative viability (Salubrinal + OSI-027; first compound 0.253 µM),relative viability (Salubrinal + OSI-027; first compound 0.8 µM),relative viability (Salubrinal + OSI-027; first compound 2.53 µM),relative viability (Salubrinal + OSI-027; first compound 8 µM),relative viability (Salubrinal + Lapatinib; first compound 0.08 µM),relative viability (Salubrinal + Lapatinib; first compound 0.253 µM),relative viability (Salubrinal + Lapatinib; first compound 0.8 µM),relative viability (Salubrinal + Lapatinib; first compound 2.53 µM),relative viability (Salubrinal + Lapatinib; first compound 8 µM),relative viability (Salubrinal + Pemetrexed; first compound 0.08 µM),relative viability (Salubrinal + Pemetrexed; first compound 0.253 µM),relative viability (Salubrinal + Pemetrexed; first compound 0.8 µM),relative viability (Salubrinal + Pemetrexed; first compound 2.53 µM),relative viability (Salubrinal + Pemetrexed; first compound 8 µM)
NCI-H1651,0.682,0.744,0.825,0.727,0.759,0.954,0.599,0.794,0.827,0.563,1.01,0.77,1.07,,0.816,0.655,0.393,0.781,0.604,0.6
NCI-H1666,0.96,0.903,1.04,1.02,0.921,0.953,0.763,0.894,0.806,0.848,0.582,0.56,0.767,0.58,0.691,0.837,0.804,0.989,0.864,0.845
NCI-H1734,0.911,0.903,0.78,0.95,0.801,0.724,0.572,0.633,0.542,0.636,1.11,1.08,1.18,1.05,1.02,0.423,0.454,0.41,0.427,0.409
NCI-H1755,0.936,0.84,0.919,0.928,0.876,0.748,0.803,0.795,0.696,0.633,1.24,0.794,1.11,1.04,0.966,0.379,0.513,0.401,0.638,0.395
NCI-H1793,0.79,0.68,0.672,0.615,0.748,0.308,0.331,0.307,0.23,0.236,0.947,0.654,0.657,0.818,0.752,1.13,0.81,1.24,0.805,0.76
NCI-H1915,1.11,1.06,,1.12,1.03,0.628,0.609,0.716,0.682,0.637,0.981,0.683,1.04,1,0.963,0.477,,0.562,0.495,0.466
NCI-H1944,0.896,0.862,0.773,0.9,0.958,0.384,0.389,0.483,0.387,0.406,0.583,0.899,0.804,0.902,0.846,0.607,0.669,0.797,0.752,0.789
NCI-H1975,0.992,0.981,0.895,0.947,0.882,0.959,0.567,0.891,0.703,0.405,1.04,0.594,0.967,0.928,0.798,0.321,0.283,0.337,0.318,0.28
NCI-H1993,0.904,0.685,0.748,0.626,0.698,0.58,0.564,0.509,0.495,0.584,0.887,0.866,0.814,1.14,0.9,0.666,0.596,0.524,,0.573
NCI-H2009,1.22,1.23,1.24,1.23,1.04,0.63,0.613,0.659,0.6,0.498,0.997,1.02,0.914,0.872,0.793,1.08,0.928,1.08,1.02,0.965
NCI-H2023,0.932,0.522,1.01,0.803,0.708,0.442,0.354,0.406,0.333,0.268,0.747,0.936,1.04,0.814,0.606,0.265,0.198,0.292,0.225,0.178
NCI-H2085,0.903,1.14,0.941,0.929,0.946,0.793,0.629,0.848,0.712,0.717,0.684,0.793,0.898,0.854,0.737,1.03,0.88,0.923,0.941,0.867
NCI-H2087,1.13,1.08,1.11,1.05,1.09,0.517,0.481,0.626,0.515,0.563,1.04,1.06,1.16,0.93,1.1,0.649,0.532,0.699,0.644,0.63
NCI-H2126,1.41,1.07,1.18,1.2,1.14,0.7,0.721,0.725,0.695,0.659,0.704,0.701,0.801,0.82,0.707,0.676,0.683,0.747,0.708,0.626
NCI-H2170,1.05,0.981,0.975,1.03,1.02,0.71,0.702,0.783,0.687,0.47,0.275,0.289,0.248,0.271,0.263,0.258,0.273,0.318,0.258,0.257
NCI-H2228,0.896,0.764,0.829,0.798,0.749,0.5,0.468,0.596,0.558,0.547,1.29,0.775,1.35,1.08,0.743,0.334,,0.404,0.326,0.277
